# Experimental data from patent US7396830B2, “Piperazine amidines as antiviral agents” (priority 2005, dated 2008).
# Tested on: HIV-1
# Experiment: Single-round infectious HIV-1 luciferase reporter virus infection of HeLa CD4 cells
# Format: cell-based
# Details: Human immunodeficiency virus 1, HeLa, 72 h, read-out: EC50 Group from Table 1
# Protocol: • Virus production—Human embryonic Kidney cell line, 293T, was propagated in Dulbecco's Modified Eagle Medium (Invitrogen, Carlsbad, Calif.) containing 10% fetal Bovine serum (FBS, Sigma, St. Louis, Mo.). • Virus infection—Human epithelial cell line, HeLa, expressing the HIV-1 receptor CD4 was propagated in Dulbecco's Modified Eagle Medium (Invitrogen, Carlsbad, Calif.) containing 10% fetal Bovine serum (FBS, Sigma, St. Louis , Mo.) and supplemented with 0.2 mg/mL Geneticin (Invitrogen, Carlsbad, Calif.). Virus-Single-round infectious reporter virus was produced by co-transfecting human embryonic Kidney 293 cells with an HIV-1 envelope DNA expression vector and a proviral cDNA containing an envelope deletion mutation and the luciferase reporter gene inserted in place of HIV-1 nef sequences (Chen et al, Ref. 41). Transfections were performed using lipofectAMINE PLUS reagent as described by the manufacturer (Invitrogen, Carlsbad, Calif.). Experiment • 1. HeLa CD4 cells were plated in 96 well plates at a cell density of 1×10^4 cells per well in 100 μl Dulbecco's Modified Eagle Medium containing 10% fetal Bovine serum and incubated overnight. • 2. Compound was added in a 2 μl dimethylsulfoxide solution, so that the final assay concentration would be ≦10 μM. • 3. 100 μl of single-round infectious reporter virus in Dulbecco's Modified Eagle Medium was then added to the plated cells and compound at an approximate multiplicity of infection (MOI) of 0.01, resulting in a final volume of 200 μl per well. • 4. Virally-infected cells were incubated at 37 degrees Celsius, in a CO2 incubator, and harvested 72 h after infection. • 5. Viral infection was monitored by measuring luciferase expression from viral DNA in the infected cells using a luciferase reporter gene assay kit, as described by the manufacturer (Roche Molecular Biochemicals, Indianapolis, Ind.). Infected cell supernatants were removed and 50 μl of lysis buffer was added per well. After 15 minutes, 50 μl of freshly-reconstituted luciferase assay reagent was added per well. Luciferase activity was then quantified by measuring luminescence using a Wallac microbeta scintillation counter. • 6. The percent inhibition for each compound was calculated by quantifying the level of luciferase expression in cells infected in the presence of each compound as a percentage of that observed for cells infected in the absence of compound and subtracting such a determined value from 100. • 7. An EC50 provides a method for comparing the antiviral potency of the compounds of this disclosure. The effective concentration for fifty percent inhibition (EC50) was calculated with the Microsoft Excel Xlfit curve fitting software. For each compound, curves were generated from percent inhibition calculated at 10 different concentrations by using a four paramenter logistic model (model 205). Table 1 is the key for the data in Table 2. Results
compound,measurement,value
O=C(C(=O)N1CCN(/C(=N/C2CCCCC2)c2ccccc2)CC1)c1c[nH]c2c(-n3ccnn3)ncc(F)c12 [AM-63],EC50,< 500 nM
